Test: Obesity induced by high fat diet in grafted mice
Format: in vivo, mouse
Source text: (§1) Male CD-1 mice with skin transplants were housed (5 per cage, ˜8 weeks old) in a central-controlled animal facility for air, humidity and temperature. These mice were fed either a regular chow or an HFD (60% kcal from fats, 20% from carbohydrates, and 20% from proteins) purchased from Bio-Serv (Frenchtown, NJ). Body weight and food intake were measure biweekly.
To examine the potential applicability in diet-induced obesity and diabetes, GLP1/GGBP-expressing cells and control cells (GGBP alone) were transplanted into two cohorts of CD1 adult male mice. The mice were fed a high fat diet (HFD) to induce obesity in grafted animals. Compared with animals on a regular chow diet, the HFD greatly accelerated body weight gain in mice grafted with control cells.
as §1, with “mice” for “mice with skin transplants”, “humidity,” for “humidity”
To examine the potential effect in diet-induced obesity and diabetes, GLP1-expressing cells and control cells were grafted onto two cohorts of CD1 adult mice, and a high fat diet (HFD) was used to induce obesity in the grafted animals. Doxycycline was applied to half of the animals to induce expression of GLP1. To minimize gender difference, only male animals were used. Compared with animals on regular chow diet, HFD greatly accelerated body weight gain in mice grafted with control cells or GLP1 cells without doxycycline treatment.

For GLP1, the body weight increase (HFD, GLP1/GGBP-expressing grafts vs GGBP alone, CD1 male mice) was “significant inhibition in body weight increase”, the body weight (HFD, doxycycline-induced GLP1 expression, CD1 male mice) was “significant decrease in body weight” and the “HFD-induced adipocyte hypertrophy in white fat tissue” value (doxycycline-induced GLP1 expression) was “dramatically suppressed this effect”.

Source: patent US20230392126A1, “TISSUE ORGANOIDS” (priority 2016, published 2023)
